Molecular target: T1, NLRP3 (Homo sapiens, UniProt Q96P20)
T1 construct: host or cells: PMA-differentiated THP-1 cells
Experiment: Measurement of IL-1β production in PMA-differentiated THP-1 cells (NLRP3 hIL1B)
Type: cell-based
Description: Measurement of IL-1β Production in PMA-Differentiated THP-1 Cells
THP-1 cells were purchased from the American Type Culture Collection and sub-cultured according to instructions from the supplier. Prior to experiments, cells were cultured in RPMI 1640 containing 10% heat inactivated FBS, penicillin (100 units/ml) and streptomycin (100 μg/ml), and maintained in log phase prior to experimental setup. Prior to the experiment THP-1 were treated with PMA (Phorbol 12-myristate 13-acetate) (10 μg/ml) for 24 hours. The day of the experiment the media was removed and attaching cells were treated with trypsin for 2 minutes, cells were then collected, washed with PBS (phosphate buffer saline), spin down, resuspended in 2% heat inactivated FBS with RPMI at a concentration of 1×10^6 cells/ml, and 100 μl was plated in a 96 well plate. Compounds were dissolved in dimethyl sulfoxide (DMSO) and added to the culture medium to achieve desired concentration (e.g. 100, 30, 10, 3, 1, 0.3 or 0.1 μM). Cells were incubated with compounds for 4 hours. Cell free supernatant was collected and the production of IL-1β was evaluated by ELISA. A vehicle only control was run concurrently with each experiment. Final DMSO concentration was 1%.
Measurement of IL-1β Production in PMA-Differentiated THP-1 Cells (Alternative Procedure)
THP-1 cells were purchased from the American Type Culture Collection and sub-cultured according to instructions from the supplier. Prior to experiments, cells were cultured in RPMI 1640 containing 10% heat inactivated FBS, penicillin (100 units/ml), streptomycin (100 μg/ml), HEPES (10 mM) and sodium pyruvate (1 mM) and maintained in log phase prior to experimental setup. Prior to the experiment, THP-1 cells were treated with PMA (Phorbol 12-myristate 13-acetate) (20 μg/ml) overnight. The day of the experiment, the media was removed and attached cells were treated with trypsin for 2 minutes, cells were then collected, washed with PBS (phosphate buffer saline), pelleted by centrifugation and resuspended in 2% heat inactivated FBS with RPMI at a concentration of 50,000 cells/well in a 384 well plate. Cell free supernatant was collected and the production of IL-1β was evaluated by ELISA. Compounds were dissolved in dimethyl sulfoxide (DMSO) and added to the culture medium to achieve desired concentration (e.g. 100, 30, 10, 3, 1, 0.3 or 0.1 μM). Cells were incubated with compounds for 2 hours. A vehicle only control was run concurrently with each experiment. Final DMSO concentration was 1%.
Measurement of IL-1β Production—hTRF Protocol (Second Alternative Procedure)
Serial dilutions of compounds in DMSO were added to low volume 384 well plates at 100 nl/well using an ECHO 550 acoustic dispenser (Labcyte) to achieve final starting concentration of 10 μM in assay.
THP-1 cells in RPMI (Gibco, 11875) media with 10% FBS at a density of 1×10^6 cell/ml in a T175 flask were treated with a final concentration of phorbol 12-myristate 13-acetate (PMA) (Sigma, P1585) of 50 ng/ml overnight at 37° C. at 5% CO2 for differentiation. Cells were harvested the next day after rinsing well with dPBS using 0.5% trypsin. A cell solution was prepared of 1×10^6 cells/ml for 50,000 cells in 50 μl/well in RPMI media with 2% FBS. Cells were plated using a multichannel pipette onto the compound dilutions in Greiner, 384 well, black clear bottom tissue culture treated plates (781090). The plates were incubated in 37° C. incubator at 5% CO2 for 2 hours.
After the 2 hour incubation, the cell plates were spun in the centrifuge for 5 minutes at 1200 rpm. Using the Felix (CyBio), 8 μl of the supernatant was transferred to 384 well, low volume, white proxy plates. (Perkin Elmer, 6008230). A human IL1beta hTRF kit was used to analyze the supernatant (CISBIO, 62HIL1BPEG). The kit instructions were followed for preparing the IL1Beta standard curve and then the antibodies from the kit were diluted 1:40 rather than 1:20 as kit instructed.

T1 sequence (Q96P20 whole entry): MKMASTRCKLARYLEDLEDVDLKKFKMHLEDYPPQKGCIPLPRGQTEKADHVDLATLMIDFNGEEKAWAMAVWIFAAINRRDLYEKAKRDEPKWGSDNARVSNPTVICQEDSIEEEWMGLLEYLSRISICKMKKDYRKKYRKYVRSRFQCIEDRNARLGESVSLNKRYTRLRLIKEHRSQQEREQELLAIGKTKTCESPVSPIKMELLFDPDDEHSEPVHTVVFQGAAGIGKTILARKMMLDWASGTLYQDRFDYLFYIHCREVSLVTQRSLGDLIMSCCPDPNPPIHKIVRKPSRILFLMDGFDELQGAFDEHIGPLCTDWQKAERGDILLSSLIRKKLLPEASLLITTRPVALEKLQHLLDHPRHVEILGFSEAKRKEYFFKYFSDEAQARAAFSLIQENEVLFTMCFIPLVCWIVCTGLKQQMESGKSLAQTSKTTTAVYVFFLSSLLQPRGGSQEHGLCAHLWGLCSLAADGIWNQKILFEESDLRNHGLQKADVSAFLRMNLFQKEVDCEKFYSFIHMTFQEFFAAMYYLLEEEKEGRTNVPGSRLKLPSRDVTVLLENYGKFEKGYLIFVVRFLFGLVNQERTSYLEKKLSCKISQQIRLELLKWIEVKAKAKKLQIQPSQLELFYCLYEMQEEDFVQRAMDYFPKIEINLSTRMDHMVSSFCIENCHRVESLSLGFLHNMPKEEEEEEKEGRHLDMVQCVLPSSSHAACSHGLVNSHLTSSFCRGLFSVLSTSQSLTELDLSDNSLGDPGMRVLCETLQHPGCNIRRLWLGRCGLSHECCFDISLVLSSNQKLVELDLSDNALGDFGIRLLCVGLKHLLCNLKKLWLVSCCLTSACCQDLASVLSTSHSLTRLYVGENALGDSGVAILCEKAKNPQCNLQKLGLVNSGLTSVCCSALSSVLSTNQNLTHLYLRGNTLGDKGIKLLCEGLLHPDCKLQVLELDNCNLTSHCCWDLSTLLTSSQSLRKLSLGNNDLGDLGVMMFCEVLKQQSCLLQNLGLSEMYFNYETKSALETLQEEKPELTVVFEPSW

EC50	Compound
1100 nM	Nc1nc(N[C@@H]2CCCC[C@@H]2O)c2ccc(-c3ccn[nH]3)cc2n1 [Example 68]
1860 nM	Nc1nc(NC[C@@H](O)CO)c2ccc(-c3ccn[nH]3)cc2n1 [Example 69]
800 nM	Nc1nc(NC[C@H](O)CO)c2ccc(-c3ccn[nH]3)cc2n1 [Example 70]
640 nM	Nc1nc(NCc2ccno2)c2ccc(-c3ccn[nH]3)cc2n1 [Example 71]
530 nM	COCC(O)CNc1nc(N)nc2cc(-c3ccn[nH]3)ccc12 (stereo not shown) [Example 72]
230 nM	CC(C)(CO)CNc1nc(N)nc2cc(-c3ccn[nH]3)ccc12 [Example 73]
780 nM	Nc1nc(NC(CO)CO)c2ccc(-c3ccn[nH]3)cc2n1 [Example 74]
5520 nM	Cn1cncc1CNc1nc(N)nc2cc(-c3ccn[nH]3)ccc12 [Example 75]
760 nM	COCc1noc(CNc2nc(N)nc3cc(-c4ccn[nH]4)ccc23)n1 [Example 76]
630 nM	Nc1nc(NCC(F)F)c2ccc(-c3ccn[nH]3)cc2n1 [Example 78]
710 nM	Cc1cnc(CNc2nc(N)nc3cc(-c4ccn[nH]4)ccc23)cn1 [Example 80]
1200 nM	Cc1noc(C)c1CNc1nc(N)nc2cc(-c3ccn[nH]3)ccc12 [Example 81]
3650 nM	NC(=O)CC(Nc1nc(N)nc2cc(-c3ccn[nH]3)ccc12)c1cccnc1 (stereo not shown) [Example 82]
2410 nM	CC(CO)(CO)Nc1nc(N)nc2cc(-c3ccn[nH]3)ccc12 [Example 83]
280 nM	CNc1nc(N)nc2cc(-c3ccn[nH]3)ccc12 [Example 84]
230 nM	Nc1nc(NCCCCO)c2ccc(-c3ccn[nH]3)cc2n1 [Example 85]
220 nM	Nc1nc(NCCCCCO)c2ccc(-c3ccn[nH]3)cc2n1 [Example 86]
1630 nM	Nc1nc(NCc2cnc[nH]2)c2ccc(-c3ccn[nH]3)cc2n1 [Example 87]
220 nM	Nc1nc(NCC(F)(F)CO)c2ccc(-c3ccn[nH]3)cc2n1 [Example 88]
460 nM	CC(C)(O)CCNc1nc(N)nc2cc(-c3ccn[nH]3)ccc12 [Example 89]
830 nM	C[C@]1(O)CC[C@@H](Nc2nc(N)nc3cc(-c4ccn[nH]4)ccc23)CC1 [Example 90]
1300 nM	CC(C)(CO)CCCNc1nc(N)nc2cc(-c3ccn[nH]3)ccc12 [Example 91]
180 nM	COCCCNc1nc(N)nc2cc(-c3ccn[nH]3)ccc12 [Example 94]

EC50	Compound
630 nM	CCCCONc1nc(N)nc2cc(-c3ccn[nH]3)ccc12 [Example 95]
210 nM	COCCNc1nc(N)nc2cc(-c3ccn[nH]3)ccc12 [Example 102]
370 nM	CCOCCNc1nc(N)nc2cc(-c3ccn[nH]3)ccc12 [Example 103]
390 nM	Nc1nc(N[C@@H]2CCCOC2)c2ccc(-c3ccn[nH]3)cc2n1 [Example 104]
1980 nM	Nc1nc(NC2CCCOC2)c2ccc(-c3ccn[nH]3)cc2n1 (stereo not shown) [Example 105]
500 nM	Nc1nc(NCC#CCO)c2ccc(-c3ccn[nH]3)cc2n1 [Example 106]
400 nM	Nc1nc(Nc2ccccc2)c2ccc(-c3ccn[nH]3)cc2n1 [Example 111]
240 nM	Nc1nc(Nc2cn[nH]c2)c2ccc(-c3ccn[nH]3)cc2n1 [Example 112]
2230 nM	Nc1nc(Nc2ccon2)c2ccc(-c3ccn[nH]3)cc2n1 [Example 113]
370 nM	Nc1nc(Nc2cnoc2)c2ccc(-c3ccn[nH]3)cc2n1 [Example 114]
18000 nM	Nc1nc(Nc2ccn(CCO)n2)c2ccc(-c3ccn[nH]3)cc2n1 [Example 115]
500 nM	Nc1nc(Nc2cc(CCO)[nH]n2)c2ccc(-c3ccn[nH]3)cc2n1 [Example 116]
490 nM	Nc1nc(NCCc2ccccn2)c2ccc(-c3cc[nH]n3)cc2n1 [Example 119]
680 nM	Nc1nc(N2CCCOCC2)c2ccc(-c3cc[nH]n3)cc2n1 [Example 120]
1850 nM	Nc1nc(N[C@@H]2CCOC2)c2ccc(-c3cc[nH]n3)cc2n1 [Example 121]
1110 nM	Nc1nc(NCCc2ccccn2)c2c(F)cc(-c3cc[nH]n3)cc2n1 [Example 122]
2860 nM	Nc1nc(N2CCCOCC2)c2c(F)cc(-c3cc[nH]n3)cc2n1 [Example 123]
600 nM	Nc1nc(NCc2cc[nH]n2)c2c(F)cc(-c3cc[nH]n3)cc2n1 [Example 124]
760 nM	Nc1nc(NCCO)c2c(F)cc(-c3cc[nH]n3)cc2n1 [Example 126]
1220 nM	Nc1nc(N[C@@H]2CCOC2)c2c(F)cc(-c3cc[nH]n3)cc2n1 [Example 127]
830 nM	Nc1nc(NCc2cncnc2)c2c(F)cc(-c3cc[nH]n3)cc2n1 [Example 128]
370 nM	Nc1nc(NCc2cc[nH]n2)c2c(Cl)cc(-c3cc[nH]n3)cc2n1 [Example 129]
5610 nM	COc1cc(-c2cc[nH]n2)cc2nc(N)nc(NCCO)c12 [Example 131]

EC50	Compound
2180 nM	COc1cc(-c2cc[nH]n2)cc2nc(N)nc(NCc3cc[nH]n3)c12 [Example 132]
650 nM	COc1cc(-c2cc[nH]n2)cc2nc(N)nc(N[C@@H]3CCOC3)c12 [Example 133]
1740 nM	COc1cc(-c2cc[nH]n2)cc2nc(N)nc(NCCc3ccccn3)c12 [Example 134]
1440 nM	COc1cc(-c2cc[nH]n2)cc2nc(N)nc(NCc3cncnc3)c12 [Example 135]
1060 nM	Cc1cc(-c2cc[nH]n2)cc2nc(N)nc(NCc3cncnc3)c12 [Example 136]
170 nM	Cc1cc(-c2cc[nH]n2)cc2nc(N)nc(NCc3cc[nH]n3)c12 [Example 137]
2140 nM	Nc1nc(N[C@@H]2COCC[C@H]2O)c2ccc(-c3ccn[nH]3)cc2n1 [Example 138]
1770 nM	CN1CC[C@H](Nc2nc(N)nc3cc(-c4ccn[nH]4)ccc23)C1 [Example 139]
1020 nM	Nc1nc(NCCOCCO)c2ccc(-c3ccn[nH]3)cc2n1 [Example 140]
510 nM	Nc1nc(NCc2cccnn2)c2ccc(-c3ccn[nH]3)cc2n1 [Example 142]
90 nM	Nc1nc(NCc2cccnc2)c2ccc(-c3ccn[nH]3)cc2n1 [Example 144]
8480 nM	Cn1cnc(CNc2nc(N)nc3cc(-c4ccn[nH]4)ccc23)c1 [Example 146]
260 nM	Nc1nc(NCc2cn[nH]c2)c2ccc(-c3ccn[nH]3)cc2n1 [Example 147]
510 nM	Nc1nc(NCCc2cnc[nH]2)c2ccc(-c3ccn[nH]3)cc2n1 [Example 148]
650 nM	Nc1nc(NCc2ccc(Cl)cn2)c2ccc(-c3ccn[nH]3)cc2n1 [Example 151]
420 nM	Nc1nc(NCCc2cccnc2)c2ccc(-c3ccn[nH]3)cc2n1 [Example 153]
160 nM	Nc1nc(N[C@H]2C[C@H](O)C2)c2ccc(-c3ccn[nH]3)cc2n1 [Example 154]
490 nM	Nc1nc(NCc2cocn2)c2ccc(-c3ccn[nH]3)cc2n1 [Example 155]
440 nM	Nc1nc(NCc2cccc3[nH]ncc23)c2ccc(-c3ccn[nH]3)cc2n1 [Example 156]
1320 nM	Nc1nc(NCCN2CCOCC2)c2ccc(-c3ccn[nH]3)cc2n1 [Example 157]
1590 nM	Nc1nc(N[C@H]2C[C@@H](O)C2)c2ccc(-c3ccn[nH]3)cc2n1 [Example 158]
430 nM	Nc1nc(N[C@H]2CC[C@@H](O)C2)c2ccc(-c3ccn[nH]3)cc2n1 [Example 159]
650 nM	COc1cccc(CNc2nc(N)nc3cc(-c4ccn[nH]4)ccc23)n1 [Example 160]

Compound	EC50
Cc1cc(C)c(CNc2nc(N)nc3cc(-c4ccn[nH]4)ccc23)c(=O)[nH]1 [Example 143]	1230 nM

Source: patent US12187706B2, “NLRP3 modulators” (INNATE TUMOR IMMUNITY, INC., priority 2019, dated 2025)
